From publication PMC12328261, “Modulating Antimicrobial Activity and Structure of the Peptide Esc(1‐21) via Site‐Specific Isopeptide Bond Formation” (Journal of Peptide Science, 2025)
*1 amine or outer side, *2 acyl side, *3 side chain or, on linkers, in order; H or OH if unused. Where a SMILES comes first, the peptide text is derived from it. Bridges are numbered along the chain shown (N, C = ends). Roman numbers before positions name the chains, in order. Where no end group is shown, it is not given here. Side-chain parts run from the residue outwards. [ ]: non-standard residue; d: D form. εLys = N[C@@H](CCCCN[*:1])C(=O)[*:2]

Experiments:
E. coli ATCC 25922 = assay type: cell-based, Escherichia coli
Protocol: (§1) The antimicrobial activity of Esc(1‐21) analogs was assessed by determining the minimal inhibitory concentration (MIC) against a panel of representative Gram‐negative and Gram‐positive bacteria. […] The bacteria were then diluted in Mueller‐Hinton (MH) broth at a concentration of 2 × 10^6 colony‐forming units (CFU)/mL. Aliquots (50 μL) were added to 50 μL of MH containing serial two‐fold dilutions of the peptides, which had been previously prepared in the wells of a 96‐well plate, achieving a final cell concentration of 10^6 CFU/mL. […] To evaluate the antibiofilm activity of the tested peptides, bacteria were diluted to a cell density of 10^6 CFU/mL and aliquots of 100 μL were dispensed into the wells of a 96‐multiwell plate and incubated for 20 h at 37°C to allow biofilm formation. Planktonic cells were then removed, and each well was washed twice with 150 μL of phosphate buffered saline (PBS). Each well was filled with PBS supplemented with different 2‐fold serial dilutions of the tested peptides and the plate was incubated for 2 h at 37°C. After two washes with PBS, biofilm viability was assessed by adding 150 μL of MTT (0.5 mg/mL). The plate was incubated for 4 h at 37°C and the reaction was then stopped by adding SDS (final concentration equal to 5% v/v). The absorbance of each well was measured at 570 nm with a microplate reader (Infinite M200; Tecan, Salzburg, Austria), and the percentage of biofilm viability was calculated with respect to the untreated samples.

P. aeruginosa ATCC 15692 = assay type: cell-based, Pseudomonas aeruginosa
Protocol: as §1

P. aeruginosa ATCC 27853 = assay type: cell-based, Pseudomonas aeruginosa
Protocol: as §1

[1] = tested on: S. epidermidis ATCC 12228; assay type: cell-based, Staphylococcus epidermidis
Protocol: as §1

S. aureus ATCC 25923 = assay type: cell-based, Staphylococcus aureus
Protocol: as §1

RBCs = tested on: RBCs; design: method as in PMID 32722535; conditions: 64 µM; cited from earlier work

Molecule: CC[C@H](C)[C@H](NC(=O)CN)C(=O)N[C@@H](Cc1ccccc1)C(=O)N[C@@H](CO)C(=O)NCCCC[C@H](N)C(=O)N[C@@H](CC(C)C)C(=O)N[C@@H](C)C(=O)NCC(=O)N[C@@H](CCCCN)C(=O)N[C@@H](CCCCN)C(=O)N[C@H](C(=O)N[C@@H](CCCCN)C(=O)N[C@@H](CC(N)=O)C(=O)N[C@@H](CC(C)C)C(=O)N[C@@H](CC(C)C)C(=O)N[C@H](C(=O)N[C@@H](CO)C(=O)NCC(=O)N[C@@H](CC(C)C)C(=O)N[C@@H](CCCCN)C(=O)NCC(N)=O)[C@@H](C)CC)[C@@H](C)CC [Esc(1‐21)ε5] (H-K([Ser-Phe-Ile-Gly])LAGKKIKNLLISGLKG-NH2)
- Antimicrobial activity (MIC) (E. coli ATCC 25922): 3.12 µM
- Antimicrobial activity (MIC) (P. aeruginosa ATCC 15692): 6.25 µM
- Antimicrobial activity (MIC) (P. aeruginosa ATCC 27853): 12.5 µM
- Antimicrobial activity (MIC) [1]: 25 µM
- Antimicrobial activity (MIC) (S. aureus ATCC 25923): > 50 µM

Molecule: CC[C@H](C)[C@H](NC(=O)CN)C(=O)N[C@@H](Cc1ccccc1)C(=O)N[C@@H](CO)C(=O)N[C@@H](CCCCN)C(=O)N[C@@H](CC(C)C)C(=O)N[C@@H](C)C(=O)NCC(=O)NCCCC[C@H](N)C(=O)N[C@@H](CCCCN)C(=O)N[C@H](C(=O)N[C@@H](CCCCN)C(=O)N[C@@H](CC(N)=O)C(=O)N[C@@H](CC(C)C)C(=O)N[C@@H](CC(C)C)C(=O)N[C@H](C(=O)N[C@@H](CO)C(=O)NCC(=O)N[C@@H](CC(C)C)C(=O)N[C@@H](CCCCN)C(=O)NCC(N)=O)[C@@H](C)CC)[C@@H](C)CC [Esc(1‐21)ε9] (I: H-KKIKNLLISGLKG-NH2 / II: H-GIFSKLAG; amide I:1-II:C)
- Antimicrobial activity (MIC) (E. coli ATCC 25922): 3.12 µM
- Antimicrobial activity (MIC) (P. aeruginosa ATCC 15692): 6.25 µM
- Antimicrobial activity (MIC) (P. aeruginosa ATCC 27853): 6.25 µM
- Antimicrobial activity (MIC) [1]: 12.5 µM
- Antimicrobial activity (MIC) (S. aureus ATCC 25923): > 50 µM

Molecule: CC[C@H](C)[C@H](NC(=O)CN)C(=O)N[C@@H](Cc1ccccc1)C(=O)N[C@@H](CO)C(=O)N[C@@H](CCCCN)C(=O)N[C@@H](CC(C)C)C(=O)N[C@@H](C)C(=O)NCC(=O)N[C@@H](CCCCN)C(=O)NCCCC[C@H](N)C(=O)N[C@H](C(=O)N[C@@H](CCCCN)C(=O)N[C@@H](CC(N)=O)C(=O)N[C@@H](CC(C)C)C(=O)N[C@@H](CC(C)C)C(=O)N[C@H](C(=O)N[C@@H](CO)C(=O)NCC(=O)N[C@@H](CC(C)C)C(=O)N[C@@H](CCCCN)C(=O)NCC(N)=O)[C@@H](C)CC)[C@@H](C)CC [Esc(1‐21)ε10] (I: H-KIKNLLISGLKG-NH2 / II: H-GIFSKLAGK; amide I:1-II:C)
- Antimicrobial activity (MIC) (E. coli ATCC 25922): 6.25 µM
- Antimicrobial activity (MIC) (P. aeruginosa ATCC 15692): 6.25 µM
- Antimicrobial activity (MIC) (P. aeruginosa ATCC 27853): 12.5 µM
- Antimicrobial activity (MIC) [1]: 25 µM
- Antimicrobial activity (MIC) (S. aureus ATCC 25923): > 50 µM

Molecule: CC[C@H](C)[C@H](NC(=O)CN)C(=O)N[C@@H](Cc1ccccc1)C(=O)N[C@@H](CO)C(=O)N[C@@H](CCCCN)C(=O)N[C@@H](CC(C)C)C(=O)N[C@@H](C)C(=O)NCC(=O)N[C@@H](CCCCN)C(=O)N[C@@H](CCCCN)C(=O)N[C@H](C(=O)NCCCC[C@H](N)C(=O)N[C@@H](CC(N)=O)C(=O)N[C@@H](CC(C)C)C(=O)N[C@@H](CC(C)C)C(=O)N[C@H](C(=O)N[C@@H](CO)C(=O)NCC(=O)N[C@@H](CC(C)C)C(=O)N[C@@H](CCCCN)C(=O)NCC(N)=O)[C@@H](C)CC)[C@@H](C)CC [Esc(1‐21)ε12] (H-GIFSKLAGKKI[εLys]NLLISGLKG-NH2)
- Antimicrobial activity (MIC) (E. coli ATCC 25922): 25 µM
- Antimicrobial activity (MIC) (P. aeruginosa ATCC 15692): 25 µM
- Antimicrobial activity (MIC) (P. aeruginosa ATCC 27853): 25 µM
- Antimicrobial activity (MIC) [1]: > 50 µM
- Antimicrobial activity (MIC) (S. aureus ATCC 25923): > 50 µM

Molecule: CC[C@H](C)[C@H](NC(=O)CN)C(=O)N[C@@H](Cc1ccccc1)C(=O)N[C@@H](CO)C(=O)N[C@@H](CCCCN)C(=O)N[C@@H](CC(C)C)C(=O)N[C@@H](C)C(=O)NCC(=O)N[C@@H](CCCCN)C(=O)N[C@@H](CCCCN)C(=O)N[C@H](C(=O)N[C@@H](CCCCN)C(=O)N[C@@H](CC(N)=O)C(=O)N[C@@H](CC(C)C)C(=O)N[C@@H](CC(C)C)C(=O)N[C@H](C(=O)N[C@@H](CO)C(=O)NCC(=O)N[C@@H](CC(C)C)C(=O)NCCCC[C@H](N)C(=O)NCC(N)=O)[C@@H](C)CC)[C@@H](C)CC [Esc(1‐21)ε20] (H-GIFSKLAGKKIKNLLISGL[εLys]G-NH2)
- Antimicrobial activity (MIC) (E. coli ATCC 25922): 1.56 µM
- Antimicrobial activity (MIC) (P. aeruginosa ATCC 15692): 1.56 µM
- Antimicrobial activity (MIC) (P. aeruginosa ATCC 27853): 1.56 µM
- Antimicrobial activity (MIC) [1]: 3.12 µM
- Antimicrobial activity (MIC) (S. aureus ATCC 25923): > 50 µM

Molecule: GIFSKLAGKKIKNLLISGLKG-NH2 [Esc(1‐21), Esculentin‐1a(1‐21)NH2]
- Hemolysis (RBCs): 10-15%
